From patent publication US10111854B2, “Synthesis and use of amine-containing flavonoids as potent anti-leishmanial agents” (The Hong Kong Polytechnic University, priority 2014, dated 2018)

What was measured:
[1] = tested on: L. donovani Ld39 promastigotes; assay: Anti-promastigote activity (MTS assay), L. donovani Ld39; type: cell-based; details: Leishmania donovani, 72 hours
Procedure, shortened: (§1)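 Promastigotes (1×10^5 per well) in Schneider's medium pH 6.9 with 10% FBS, exposed to serial compound concentrations for 72 h at 27 °C. Viability by MTS/PMS reduction over 4 h, OD 490 nm; IC50 derived.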

[2] = tested on: L. donovani HU3 amastigotes; assay: Anti-amastigote activity in infected PEM, L. donovani HU3; type: cell-based; details: for Selective index (a)/(b): IC50 RAW264.7 over IC50 L. donovani HU3 amastigotes; for IC50: Leishmania donovani, 72 h, infected PEM, 3 days, Giemsa, SSG-sensitive
Procedure, shortened: (§2)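 Read-out was Giemsa-stained counts of amastigotes per 100 macrophages, used for IC50, after 72 h drug exposure at 37 °C of mouse peritoneal macrophages previously infected with late-log promastigotes.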

[3] = Cytotoxicity, peritoneal elicited macrophages (PEM); type: cell-based, mouse; details: mouse, Cytotoxicity IC50, PEM
[4] = tested on: L. donovani HU3 promastigotes; assay: Anti-promastigote activity (MTS assay), L. donovani HU3; type: cell-based; details: Leishmania donovani, 72 hours
Procedure, shortened: as §1

RAW264.7 cells = assay: Reactive oxygen species (ROS) level, DCFDA, RAW264.7; type: cell-based, murine; details: for ROS induction in macrophages: RAW264.7
Procedure, shortened: (§3)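 RAW264.7 macrophages or L. amazonensis promastigotes pre-loaded 1 h with 10 μM DCFDA (37 °C and 27 °C respectively), washed, then exposed to compounds (10 or 30 μM in macrophages; 30 μM in promastigotes). DCF fluorescence (ex 485 nm) read at 2–72 h, background from unstained cells subtracted.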

[5] = tested on: L. donovani Ld39 amastigotes (SSG-resistant); assay: Anti-amastigote activity in infected PEM, L. donovani Ld39; type: cell-based; details: for Selective index (a)/(c): IC50 RAW264.7 over IC50 L. donovani Ld39 amastigotes; for IC50: Leishmania donovani, 72 h, infected PEM, 3 days, Giemsa, SSG-resistant
Procedure, shortened: as §2

[6] = tested on: L. amazonensis LV78 promastigotes; assay: Reactive oxygen species (ROS) level, DCFDA, promastigotes; type: cell-based; details: 30 μM
Procedure, shortened: as §3

[7] = Cytotoxicity, L929 fibroblasts; type: cell-based, mouse; details: mouse
Procedure: IC50 values of known antileishmanials and the amine-containing flavonoid monomers of the present invention to promastigotes (L. amazonensis LV78, L major FV1, L. donovani HU3, L. donovani 39), macrophages (Raw 264.7 and PEM) and mouse fibroblast (L929) were determined. The anti-promastigotes activities and cytotoxicity of the amine-containing flavonoid monomers of the invention are shown in Table 1.

[8] = tested on: L. amazonensis LV78 amastigotes; assay: Anti-amastigote activity in infected PEM, L. amazonensis LV78; type: cell-based; details: for Selective index (a)/(b): IC50 RAW264.7 over IC50 L. amazonensis LV78 amastigotes; for IC50: Leishmania amazonensis, 72 h, infected PEM, 3 days, Giemsa
Procedure, shortened: as §2

SMILES	IC50 [1] [nM]	Selective index (a)/(b) [2]	IC50 [2] [nM]	IC50 [3] [nM]	RAW264.7 ROS Level, Relative fold (RF) (RAW264.7 cells; 10 μM, 2 hr) [fold]	RAW264.7 ROS Level, Relative fold (RF) (RAW264.7 cells; 10 μM, 4 hr) [fold]	RAW264.7 ROS Level, Relative fold (RF) (RAW264.7 cells; 10 μM, 6 hr) [fold]	RAW264.7 ROS Level, Relative fold (RF) (RAW264.7 cells; 10 μM, 8 hr) [fold]	RAW264.7 ROS Level, Relative fold (RF) (RAW264.7 cells; 10 μM, 20 hr) [fold]	ROS induction in macrophages (RAW264.7 cells; 10 μM)	RAW264.7 ROS Level, Relative fold (RF) (RAW264.7 cells; 30 μM, 2 hr) [fold]	RAW264.7 ROS Level, Relative fold (RF) (RAW264.7 cells; 30 μM, 4 hr) [fold]	RAW264.7 ROS Level, Relative fold (RF) (RAW264.7 cells; 30 μM, 6 hr) [fold]	RAW264.7 ROS Level, Relative fold (RF) (RAW264.7 cells; 30 μM, 20 hr) [fold]	RAW264.7 ROS Level, Relative fold (RF) (RAW264.7 cells; 30 μM, 46 hr) [fold]	Selective index (a)/(c) [5]	IC50 [5] [nM]	L. amazon LV78 promastigote ROS Level, Relative fold (RF) ([6]; 2 hr) [fold]	L. amazon LV78 promastigote ROS Level, Relative fold (RF) ([6]; 4 hr) [fold]	L. amazon LV78 promastigote ROS Level, Relative fold (RF) ([6]; 6 hr) [fold]	also measured
O=c1cc(-c2ccc(OCCOCCN(Cc3ccccn3)Cc3ccccn3)cc2)oc2ccccc12 [FM09, 2-(4-(2-(2-(bis(pyridin-2-ylmethyl)amino)ethoxy)ethoxy)phenyl)-4H-chromen-4-one]	500 ± 100	47.3	400	22000	1.1	1.1	1.0	1.0	1.1	No ROS induction	1.3	1.4	1.3	1.4	2.1	>51.1	< 370	2.0	2.1	2.3	IC50 [4]: 500 ± 200 nM; L. amazon LV78 promastigote ROS Level, Relative fold (RF) ([6]; 20 hr): 3.2 fold; L. amazon LV78 promastigote ROS Level, Relative fold (RF) ([6]; 46 hr): 4.3 fold; L. amazon LV78 promastigote ROS Level, Relative fold (RF) ([6]; 72 hr): 6.2 fold; IC50 [7]: > 33000 nM; Selective index (a)/(b) [8]: 63; IC50 [8]: 300 nM
O=c1cc(-c2ccc(OCCOCCN(CCOCCOc3ccc(-c4cc(=O)c5ccccc5o4)cc3)Cc3ccncc3)cc2)oc2ccccc12 [compound 39]	210 ± 60	>500	200 ± 60	> 100000	0.9	0.9	0.9	0.8	0.9	No ROS induction	1.3	1.4	1.3	1.3	1.4	47.6	210 ± 60	1.3	1.3	1.3	L. amazon LV78 promastigote ROS Level, Relative fold (RF) ([6]; 20 hr): 1.6 fold; L. amazon LV78 promastigote ROS Level, Relative fold (RF) ([6]; 46 hr): 1.4 fold; L. amazon LV78 promastigote ROS Level, Relative fold (RF) ([6]; 72 hr): 1.6 fold; IC50 [7]: 26400 nM; Selective index (a)/(b) [8]: 232.6; IC50 [8]: 430 nM
